# In ChEMBL document CHEMBL1614632, “Trend analysis of a database of intravenous pharmacokinetic parameters in humans for 670 drug compounds” (Drug Metab Dispos, 2008):
# Numbered stars: 1 amine (or outer) side, 2 acyl side, 3 side chain; on linkers, the order of the positions; unused ones are H or OH. Bridge positions count the residues as written; N and C are the ends. Square brackets hold non-standard residues; d marks the D form. Peptide text beside a SMILES is read from it. * marks the point of attachment. X2 = O=C1C[C@@H](C(=O)[*:2])N([*:1])C[C@H]1CS[C@@H]1CN2CCC1CC2; NMePhe(4-NMe2) = CN[C@@H](Cc1ccc(N(C)C)cc1)C(=O)O; Picolinoyl(3-OH) = O=C(c1ncccc1O)*; Phg = N[C@H](C(=O)O)c1ccccc1; dAbu = CC[C@@H](N)C(=O)O
# Assays:
# clinical [1] = details: human, in vivo, iv, Vdss
# clinical [2] = details: human, in vivo, iv, CL
# clinical [3] = details: human, in vivo, iv, t1/2
# clinical [4] = details: human, in vivo, iv
# clinical [5] = details: human, in vivo, iv; remark: listed apart in the source
Compound,Vd (clinical [1]) [L/kg],clearance (clinical [2]) [mL/min/kg],half-life (clinical [3]) [h],MRT (clinical [4]) [h],fraction unbound (clinical [5])
CC1(C)O[C@@H]2C[C@H]3[C@@H]4CCC5=CC(=O)C=C[C@]5(C)[C@@]4(F)[C@@H](O)C[C@]3(C)[C@]2(C(=O)CO)O1 [TRIAMCINOLONE ACETONIDE],1.4,9.4,2.4,2.5,0.2
CN[C@@H](C)Cc1ccccc1 [METHAMPHETAMINE],4.3,4.4,12,16,0.85
C=CCC1(C(C)C#CCC)C(=O)N=C(O)N(C)C1=O (stereo not given) [METHOHEXITAL],1.1,12,1.6,1.5,0.27
NCc1ccccc1CC(=O)N[C@@H]1C(=O)N2C(C(=O)O)=C(CSc3nnnn3CC(=O)O)CS[C@H]12 [CEFORANIDE],0.17,0.66,3,4.3,0.19
Nc1c(CC(=O)O)cccc1C(=O)c1ccc(Br)cc1 [BROMFENAC],0.11,1.3,2.6,1.5,0.0011
CC(=O)O[C@H]1C[C@@H]2CC[C@@H]3[C@H](CC[C@@]4(C)[C@H]3C[C@H]([N+]3(C)CCCCC3)[C@@H]4OC(C)=O)[C@@]2(C)C[C@@H]1N1CCCCC1.[Br-] [VECURONIUM BROMIDE],0.3,4.5,1.4,1.1,0.25
CCCCCc1cc(O)c2c(c1)OC(C)(C)[C@@H]1CCC(C)=C[C@@H]21 [DRONABINOL],8.9,3.2,33,46,0.05
C=CC[N+]1([C@H]2C[C@H]3[C@@H]4CC[C@H]5C[C@H](O)[C@@H](N6CCOCC6)C[C@]5(C)[C@H]4CC[C@]3(C)[C@H]2OC(C)=O)CCCC1 [ROCURONIUM],0.21,3.7,1.6,0.95,0.54
CC(Oc1ccccc1)C(=O)N[C@@H]1C(=O)N2[C@@H]1SC(C)(C)[C@@H]2C(=O)O (stereo not given in full) [PHENETHICILLIN],0.3,4.2,0.91,1.2,0.25
CC[C@H]1NC(=O)[C@@H](NC(=O)c2ncccc2O)[C@@H](C)OC(=O)[C@H](c2ccccc2)NC(=O)[C@@H]2CC(=O)[C@H](CS[C@@H]3CN4CCC3CC4)CN2C(=O)[C@H](Cc2ccc(N(C)C)cc2)N(C)C(=O)[C@@H]2CCCN2C1=O [QUINUPRISTIN] ({Picolinoyl(3-OH)}-T[dAbu]P[NMePhe(4-NMe2)][X2][Phg]; ester 1-C),0.67,16,0.87,0.7,0.34
CCN(CC)CCNC(=O)c1cc(Br)c(N)cc1OC [BROMOPRIDE],3.1,13,2.9,4,0.6
CCc1nc(N)nc(N)c1-c1ccc(Cl)cc1 [PYRIMETHAMINE],0.43,0.052,140,140,0.095
C[C@@H](O)[C@H]1C(=O)N2C(C(=O)O)=C(S[C@@H]3CN[C@H](C(=O)Nc4cccc(C(=O)O)c4)C3)[C@H](C)[C@H]12,0.12,0.45,3.8,4.4,0.1
[H]/N=C(/N)N[C@H]1[C@H](O)[C@@H](O)[C@H](O[C@@H]2O[C@@H](C)[C@](O)(C=O)[C@H]2O[C@@H]2O[C@@H](CO)[C@H](O)[C@@H](O)[C@@H]2NC)[C@@H](N/C(N)=N\[H])[C@@H]1O [STREPTOMYCIN],0.34,0.78,4.3,7.3,0.65
Nc1nc(Cl)nc2c1ncn2[C@H]1C[C@H](O)[C@@H](CO)O1 [CLADRIBINE],7.7,14,16,9.2,0.79
CCNC(=O)[C@@H]1CCCN1C(=O)[C@H](CCCNC(=N)N)NC(=O)[C@H](CC(C)C)NC(=O)[C@@H](CC(C)C)NC(=O)[C@H](Cc1ccc(O)cc1)NC(=O)[C@H](CO)NC(=O)[C@H](Cc1c[nH]c2ccccc12)NC(=O)[C@H](Cc1c[nH]cn1)NC(=O)[C@@H]1CCC(=O)N1 [LEUPROLIDE],0.38,2,2.9,3.1,0.54
O=C1C(O)=C([C@H]2CC[C@H](c3ccc(Cl)cc3)CC2)C(=O)c2ccccc21 [ATOVAQUONE],0.6,0.15,63,67,0.001
NCCCCCC(=O)O [AMINOCAPROIC ACID],0.39,2.5,4.9,2.6,0.92
C#C[C@]1(O)CC[C@H]2[C@@H]3CCc4cc(OS(=O)(=O)O)ccc4[C@H]3CC[C@@]21C,2.3,4.7,8.4,8.2,0.011
